Data from ChEMBL document CHEMBL1759982, “Hybrid compounds as new Bcr/Abl inhibitors” (Bioorg Med Chem Lett, 2011).
Blank lines part the entries; values can stand above or below the compound they belong to. Activity calls are given as the source filed them. No cut-off for these calls is given here.

Key:
[1] = Antiproliferative activity against human KU812 cells; type: functional, cell-based
K562 [2] = test: Antiproliferative activity against human imatinib-resistant K562 cells; type: functional, cell-based
Bcr/Abl fusion protein = Bcr/Abl fusion protein (Homo sapiens, UniProt P00519); test: Inhibition of Bcr/Abl by FRET-based Z-lyte assay; type: protein assay
Chain of Bcr/Abl fusion protein (P00519 whole entry, the tested form may be a part): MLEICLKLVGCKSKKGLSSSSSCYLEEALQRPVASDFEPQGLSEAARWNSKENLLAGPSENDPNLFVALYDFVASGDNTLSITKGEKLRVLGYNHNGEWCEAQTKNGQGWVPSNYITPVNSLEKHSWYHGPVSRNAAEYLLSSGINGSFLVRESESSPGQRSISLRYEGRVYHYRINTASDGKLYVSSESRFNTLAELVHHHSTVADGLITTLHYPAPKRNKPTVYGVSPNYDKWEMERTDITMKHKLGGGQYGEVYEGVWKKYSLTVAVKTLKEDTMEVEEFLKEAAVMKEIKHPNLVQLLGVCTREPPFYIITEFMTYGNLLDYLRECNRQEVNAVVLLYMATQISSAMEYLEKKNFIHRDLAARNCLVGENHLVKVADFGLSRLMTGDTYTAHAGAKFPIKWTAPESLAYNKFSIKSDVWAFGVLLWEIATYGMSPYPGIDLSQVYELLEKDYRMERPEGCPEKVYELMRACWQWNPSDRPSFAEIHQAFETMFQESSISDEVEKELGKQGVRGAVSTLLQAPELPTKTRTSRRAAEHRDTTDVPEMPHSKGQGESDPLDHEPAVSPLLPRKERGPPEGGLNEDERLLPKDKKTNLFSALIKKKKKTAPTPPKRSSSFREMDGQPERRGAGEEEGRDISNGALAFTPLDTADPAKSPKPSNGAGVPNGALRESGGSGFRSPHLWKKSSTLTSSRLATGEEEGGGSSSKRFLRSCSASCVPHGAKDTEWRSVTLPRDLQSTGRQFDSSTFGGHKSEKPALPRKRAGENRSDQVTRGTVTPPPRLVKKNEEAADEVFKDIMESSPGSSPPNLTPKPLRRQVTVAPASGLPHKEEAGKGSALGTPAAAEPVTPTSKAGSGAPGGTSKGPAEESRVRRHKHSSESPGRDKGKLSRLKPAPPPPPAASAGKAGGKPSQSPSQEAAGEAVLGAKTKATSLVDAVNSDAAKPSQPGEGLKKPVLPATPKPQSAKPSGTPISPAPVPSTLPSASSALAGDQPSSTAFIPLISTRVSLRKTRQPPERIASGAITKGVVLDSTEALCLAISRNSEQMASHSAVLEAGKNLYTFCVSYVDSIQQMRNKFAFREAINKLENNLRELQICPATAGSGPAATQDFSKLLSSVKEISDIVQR
Chain of Bcr/Abl fusion protein (P11274 whole entry, further chain, the tested form may be a part): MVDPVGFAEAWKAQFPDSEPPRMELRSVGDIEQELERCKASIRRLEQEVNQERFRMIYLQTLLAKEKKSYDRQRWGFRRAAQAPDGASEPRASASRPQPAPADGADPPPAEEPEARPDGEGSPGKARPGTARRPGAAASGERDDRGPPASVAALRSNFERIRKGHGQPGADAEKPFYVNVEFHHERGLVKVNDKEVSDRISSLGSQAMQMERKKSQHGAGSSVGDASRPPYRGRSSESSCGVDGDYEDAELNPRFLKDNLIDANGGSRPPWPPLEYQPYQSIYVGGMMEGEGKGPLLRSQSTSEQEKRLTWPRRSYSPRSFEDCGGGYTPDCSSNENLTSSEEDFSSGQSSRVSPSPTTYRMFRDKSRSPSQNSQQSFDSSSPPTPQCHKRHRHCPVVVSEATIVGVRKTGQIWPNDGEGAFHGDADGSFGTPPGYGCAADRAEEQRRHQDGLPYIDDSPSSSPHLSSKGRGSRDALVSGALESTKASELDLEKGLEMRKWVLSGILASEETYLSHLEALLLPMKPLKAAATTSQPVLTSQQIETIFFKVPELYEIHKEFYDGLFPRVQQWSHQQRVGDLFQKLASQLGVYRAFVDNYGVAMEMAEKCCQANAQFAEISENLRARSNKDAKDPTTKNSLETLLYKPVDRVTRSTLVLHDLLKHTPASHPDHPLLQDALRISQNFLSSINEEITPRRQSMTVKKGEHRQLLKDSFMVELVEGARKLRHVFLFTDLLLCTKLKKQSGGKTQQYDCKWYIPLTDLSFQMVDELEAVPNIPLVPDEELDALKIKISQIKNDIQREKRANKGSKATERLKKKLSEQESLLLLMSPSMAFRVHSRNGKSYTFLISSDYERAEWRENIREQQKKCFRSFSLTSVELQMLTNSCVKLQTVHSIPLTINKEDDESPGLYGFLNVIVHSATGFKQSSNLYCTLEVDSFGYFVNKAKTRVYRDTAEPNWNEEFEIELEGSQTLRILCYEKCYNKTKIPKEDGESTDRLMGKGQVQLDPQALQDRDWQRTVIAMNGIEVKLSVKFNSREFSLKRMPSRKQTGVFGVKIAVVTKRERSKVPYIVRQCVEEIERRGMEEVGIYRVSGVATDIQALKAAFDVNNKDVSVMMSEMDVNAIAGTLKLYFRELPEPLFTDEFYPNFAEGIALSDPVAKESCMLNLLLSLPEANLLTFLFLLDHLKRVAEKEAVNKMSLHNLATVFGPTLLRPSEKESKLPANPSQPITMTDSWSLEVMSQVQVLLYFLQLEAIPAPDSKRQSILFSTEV

K562 [3] = test: Antiproliferative activity against human K562 cells; type: functional, cell-based
K562 [4] = test: Induction of apoptosis in human K562 cells assessed as viable cells at 20 nM using annexin V-propidium iodide and annexin V staining by flow cytometry (reference value: 87.02%); type: functional; settings: read-out: Activity
K562 [5] = test: Induction of apoptosis in human K562 cells assessed as early apoptotic cells at 20 nM using annexin V-propidium iodide and annexin V staining by flow cytometry (reference value: 3.34%); type: functional
K562 [6] = test: Cell cycle arrest in human K562 cells assessed as accumulation at G0/G1 phase at 100 nM by Flow cytometry (reference value: 49.42%); type: functional
[7] = biological target: Bcr/Abl fusion protein (Homo sapiens) (UniProt P00519+P11274); test: Inhibition of Bcr/Abl autophosphorylation in human K562 cells after 4 hrs by Western blotting; type: cell-based
Chain of Bcr/Abl fusion protein (Homo sapiens) (P00519 whole entry, looked up, the tested form may be a part): as the sequence (P00519 whole entry, the tested form may be a part) above
Chain of Bcr/Abl fusion protein (Homo sapiens) (P11274 whole entry, looked up, the tested form may be a part): as the sequence (P11274 whole entry, further chain, the tested form may be a part) above

K562 [8] = test: Cell cycle arrest in human K562 cells assessed as accumulation at G0/G1 phase at 50 nM by Flow cytometry (reference value: 49.42%); type: functional
K562 [9] = test: Cell cycle arrest in human K562 cells assessed as accumulation at G2/M1 phase at 50 nM by Flow cytometry (reference value: 4.43%); type: functional
K562 [10] = test: Induction of apoptosis in human K562 cells assessed as early apoptotic cells at 50 nM using annexin V-propidium iodide and annexin V staining by flow cytometry (reference value: 3.34%); type: functional
K562 [11] = test: Induction of apoptosis in human K562 cells assessed as late apoptotic cells at 20 nM using annexin V-propidium iodide and annexin V staining by flow cytometry (reference value: […]%); type: functional
K562 [12] = test: Induction of apoptosis in human K562 cells assessed as viable cells at 50 nM using annexin V-propidium iodide and annexin V staining by flow cytometry (reference value: 87.02%); type: functional; settings: read-out: Activity
K562 [13] = test: Induction of apoptosis in human K562 cells assessed as pre-necrotic cells at 100 nM using annexin V-propidium iodide and annexin V staining by flow cytometry (reference value: 1.42%); type: functional
K562 [14] = test: Induction of apoptosis in human K562 cells assessed as late apoptotic cells at 50 nM using annexin V-propidium iodide and annexin V staining by flow cytometry (reference value: […]%); type: functional
K562 [15] = test: Cell cycle arrest in human K562 cells assessed as accumulation at G2/M1 phase at 100 nM by Flow cytometry (reference value: 4.43%); type: functional
K562 [16] = test: Cell cycle arrest in human K562 cells assessed as accumulation at S phase at 50 nM by Flow cytometry (reference value: 46.15%); type: functional
K562 [17] = test: Cell cycle arrest in human K562 cells assessed as accumulation at S phase at 20 nM by Flow cytometry (reference value: 46.15%); type: functional
K562 [18] = test: Induction of apoptosis in human K562 cells assessed as late apoptotic cells at 100 nM using annexin V-propidium iodide and annexin V staining by flow cytometry (reference value: […]%); type: functional
K562 [19] = test: Cell cycle arrest in human K562 cells assessed as accumulation at G2/M1 phase at 20 nM by Flow cytometry (reference value: 4.43%); type: functional
K562 [20] = test: Induction of apoptosis in human K562 cells assessed as pre-necrotic cells at 20 nM using annexin V-propidium iodide and annexin V staining by flow cytometry (reference value: 1.42%); type: functional
K562 [21] = test: Cell cycle arrest in human K562 cells assessed as accumulation at G0/G1 phase at 20 nM by Flow cytometry (reference value: 49.42%); type: functional
K562 [22] = test: Induction of apoptosis in human K562 cells assessed as early apoptotic cells at 100 nM using annexin V-propidium iodide and annexin V staining by flow cytometry (reference value: 3.34%); type: functional
K562 [23] = test: Cell cycle arrest in human K562 cells assessed as accumulation at S phase at 100 nM by Flow cytometry (reference value: 46.15%); type: functional
K562 [24] = test: Induction of apoptosis in human K562 cells assessed as viable cells at 100 nM using annexin V-propidium iodide and annexin V staining by flow cytometry (reference value: 87.02%); type: functional; settings: read-out: Activity
K562 [25] = test: Induction of apoptosis in human K562 cells assessed as pre-necrotic cells at 50 nM using annexin V-propidium iodide and annexin V staining by flow cytometry (reference value: 1.42%); type: functional

Structure (SMILES): Cc1ccc(C(=O)Nc2cccc(C(F)(F)F)c2)cc1Nc1nc(-c2cccnc2)cs1
- IC50 [1]: 1240 nM
- IC50 (K562 [2]): 1440 nM
- IC50 (Bcr/Abl fusion protein): > 10000 nM
- IC50 (K562 [3]): 3000 nM

- IC50 (K562 [2]): 1830 nM
- IC50 (Bcr/Abl fusion protein): 671 nM
- IC50 (K562 [3]): 28 nM
Structure (SMILES): Cc1cn(-c2cc(NC(=O)c3ccc(C)c(Nc4nc(-c5cccnc5)cs4)c3)cc(C(F)(F)F)c2)cn1
- IC50 [1]: 30 nM

- IC50 (K562 [2]): 2360 nM
- IC50 (Bcr/Abl fusion protein): 1300 nM
- IC50 (K562 [3]): 812 nM
Structure (SMILES): Cc1cn(-c2cc(Cl)cc(NC(=O)c3ccc(C)c(Nc4nc(-c5cccnc5)cs4)c3)c2)cn1
- IC50 [1]: 518 nM

- IC50 (K562 [2]): 6.05 nM
- IC50 (K562 [3]): 380 nM
Structure (SMILES): Cc1ccc(NC(=O)c2ccc(CN3CCN(C)CC3)cc2)cc1Nc1nccc(-c2cccnc2)n1 [IMATINIB]
- IC50 [1]: 337 nM

- IC50 (K562 [2]): 5380 nM
- IC50 (Bcr/Abl fusion protein): 491 nM
- IC50 (K562 [3]): 27 nM
Structure (SMILES): Cc1ccc(C(=O)Nc2cc(-c3cnn(C)c3)cc(C(F)(F)F)c2)cc1Nc1nc(-c2cccnc2)cs1
- IC50 [1]: 27.1 nM

- IC50 (K562 [2]): 3290 nM
- IC50 (Bcr/Abl fusion protein): 774 nM
- IC50 (K562 [3]): 449 nM
Structure (SMILES): Cc1cc(NC(=O)c2ccc(C)c(Nc3nc(-c4cccnc4)cs3)c2)cc(-n2cnc(C)c2)c1
- IC50 [1]: 871 nM

- IC50 (K562 [2]): 2720 nM
- IC50 (Bcr/Abl fusion protein): 5510 nM
- IC50 (K562 [3]): 1600 nM
Structure (SMILES): CCc1ccc(C(=O)Nc2cc(-n3cnc(C)c3)cc(C(F)(F)F)c2)cc1Nc1nc(-c2cccnc2)cs1
- IC50 [1]: 945 nM

- IC50 (K562 [2]): 2140 nM
- IC50 (Bcr/Abl fusion protein): 507 nM
- IC50 (K562 [3]): 28 nM
Structure (SMILES): Cc1ccc(C(=O)Nc2cc(-n3ccnc3)cc(C(F)(F)F)c2)cc1Nc1nc(-c2cccnc2)cs1
- IC50 [1]: 36 nM

- IC50 (K562 [2]): 2910 nM
- IC50 (Bcr/Abl fusion protein): 177 nM
- IC50 (K562 [3]): 31 nM
Structure (SMILES): Cc1cn(-c2cc(NC(=O)c3ccc(C)c(Nc4nc(-c5cccnc5)cs4)c3)cc(C(C)C)c2)cn1
- IC50 [1]: 51 nM

- IC50 (K562 [2]): 1630 nM
- IC50 (Bcr/Abl fusion protein): 480 nM
- IC50 (K562 [3]): 26 nM
Structure (SMILES): Cc1ncn(-c2cc(NC(=O)c3ccc(C)c(Nc4nc(-c5cccnc5)cs4)c3)cc(C(F)(F)F)c2)n1
- IC50 [1]: 38 nM

- IC50 (K562 [2]): 3510 nM
- IC50 (Bcr/Abl fusion protein): 277 nM
- IC50 (K562 [3]): 57 nM
Structure (SMILES): Cc1ccc(C(=O)Nc2cc(-c3cn(C)nn3)cc(C(F)(F)F)c2)cc1Nc1nc(-c2cccnc2)cs1
- IC50 [1]: 90 nM

- IC50 (K562 [2]): 1720 nM
- IC50 (Bcr/Abl fusion protein): 3780 nM
- IC50 (K562 [3]): 3190 nM
Structure (SMILES): Cc1cn(-c2cc(NC(=O)c3cccc(Nc4nc(-c5cccnc5)cs4)c3)cc(C(F)(F)F)c2)cn1
- IC50 [1]: 2730 nM

- IC50 (K562 [2]): 640 nM
- inhibition [7]: Active
- IC50 (Bcr/Abl fusion protein): 20.1 nM
- IC50 (K562 [3]): 10 nM
Structure (SMILES): Cc1cn(-c2cc(NC(=O)c3ccc(C)c(Nc4nc(-c5cccnc5)cs4)c3)cc(C(C)(C)C)c2)cn1
- IC50 [1]: 11 nM
- viability at 0.02 µM (K562 [4]): 95.7%
- Activity (K562 [5]): 5.06%
- Activity (K562 [6]): 75.53%
- Activity (K562 [8]): 69.3%
- Activity (K562 [9]): 0.21%
- Activity (K562 [10]): 6.87%
- Activity (K562 [11]): 8.15%
- viability at 0.05 µM (K562 [12]): 73.8%
- Activity (K562 [13]): 5.18%
- Activity (K562 [14]): 16.34%
- Activity (K562 [15]): 0%
- Activity (K562 [16]): 30.45%
- Activity (K562 [17]): 42.66%
- Activity (K562 [18]): 27.04%
- Activity (K562 [19]): 2.15%
- Activity (K562 [20]): 1.14%
- Activity (K562 [21]): 55.19%
- Activity (K562 [22]): 11.11%
- Activity (K562 [23]): 24.47%
- viability at 0.1 µM (K562 [24]): 56.7%
- Activity (K562 [25]): 3.11%

Structure (SMILES): Cc1cn(-c2cc(NC(=O)c3ccc(C)c(Nc4nc(-c5cccnc5)cs4)c3)cc(C34CC5CC(CC(C5)C3)C4)c2)cn1
- IC50 [1]: 2800 nM
- IC50 (K562 [2]): 11800 nM
- IC50 (Bcr/Abl fusion protein): > 2000 nM
- IC50 (K562 [3]): 1060 nM

- IC50 (K562 [2]): 260 nM
- IC50 (K562 [3]): 6.5 nM
Structure (SMILES): Cc1cn(-c2cc(NC(=O)c3ccc(C)c(Nc4nccc(-c5cccnc5)n4)c3)cc(C(F)(F)F)c2)cn1 [NILOTINIB]
- IC50 [1]: 3.4 nM
